Experimental data as given in patent US12350270B2, “Antimalarial agents” (Merck Sharp & Dohme LLC, priority 2019, dated 2025).

The compounds below were run on parasites (ring stage, in human red blood cell culture) (assay: Parasite LDH growth assay (antiparasite potency, Parasite Assay)). Conditions: 0.7% rings, 2% haematocrit, 72 hours at 37° C., LDH readout of parasite growth.
Assay type: cell-based, Plasmodium falciparum
Summary of the method: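 Ring-stage parasites at 0.7% parasitemia and 2% haematocrit, in RPMI-Hepes/bicarbonate with 5% heat-inactivated human serum and 0.5% albumax, were added to compound-containing medium. Cultures grew 72 h at 37 °C in gassed humidified boxes. Plates were then frozen overnight at −80 °C, thawed 4 h, and growth was measured by LDH assay.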

| SMILES | EC50 |
| --- | --- |
| CCC1(CC)CC(=O)N([C@H]2c3cc(C(=O)N[C@@H]4c5ccccc5C[C@H]4O)ccc3CC2OC)C(=N)N1 (stereo partly drawn) [Example 140B, (3S)-3-(4,4-diethyl-2-imino-6-oxo-hexahydropyrimidin-1-yl)-N-[(1R,2R)-2-hydroxyindan-1-yl]-2-methoxy-indane-5-carboxamide] | 1.7 nM |

Same assay, conditions: Plasmodium falciparum, Erythrocyte, 72 h, 0.7% rings, 2% haematocrit, 72 hours at 37° C., LDH readout of parasite growth

| SMILES | EC50 |
| --- | --- |
| C[C@@H]1Cc2ccc(C(=O)N[C@@H]3c4ccccc4OC(C)(C)[C@H]3O)cc2[C@@H]1N1C(=N)NC(C)(C)CC1=O [Example 135, (2R,3R)-N-[(3S,4R)-3-hydroxy-2,2-dimethyl-chroman-4-yl]-3-(2-imino-4,4-dimethyl-6-oxo-hexahydropyrimidin-1-yl)-2-methyl-indane-5-carboxamide] | 0.9 nM |
| C[C@H]1Cc2ccc(C(=O)N[C@@H]3c4ccccc4OC(C)(C)[C@H]3O)cc2[C@@H]1N1C(=N)NC(C)(C)CC1=O [Example 136, (2S,3R)-N-[(3S,4R)-3-hydroxy-2,2-dimethyl-chroman-4-yl]-3-(2-imino-4,4-dimethyl-6-oxo-hexahydropyrimidin-1-yl)-2-methyl-indane-5-carboxamide] | 1.3 nM |
| C[C@H]1Cc2ccc(C(=O)N[C@@H]3c4ccccc4OC(C)(C)[C@H]3O)cc2[C@H]1N1C(=N)NC(C)(C)CC1=O [Example 137, (2S,3S)-N-[(3S,4R)-3-hydroxy-2,2-dimethyl-chroman-4-yl]-3-(2-imino-4,4-dimethyl-6-oxo-hexahydropyrimidin-1-yl)-2-methyl-indane-5-carboxamide] | 239 nM |
| C[C@@H]1C[C@@H](N2C(=N)NC(C)(C)CC2=O)c2cc(C(=O)N[C@@H]3c4ccccc4OC(C)(C)[C@H]3O)ccc21 [Example 138, (1R,3R)-N-[(3S,4R)-3-hydroxy-2,2-dimethyl-chroman-4-yl]-3-(2-imino-4,4-dimethyl-6-oxo-hexahydropyrimidin-1-yl)-1-methyl-indane-5-carboxamide] | 0.9 nM |
| C[C@H]1C[C@H](N2C(=N)NC(C)(C)CC2=O)c2cc(C(=O)N[C@@H]3c4ccccc4OC(C)(C)[C@H]3O)ccc21 [Example 139, (1S,3S)-N-[(3S,4R)-3-hydroxy-2,2-dimethyl-chroman-4-yl]-3-(2-imino-4,4-dimethyl-6-oxo-hexahydropyrimidin-1-yl)-1-methyl-indane-5-carboxamide] | 180 nM |
| CCC1(CC)CC(=O)N([C@H]2c3cc(C(=O)N[C@@H]4c5ccccc5C[C@H]4O)ccc3CC2OC)C(=N)N1 (stereo partly drawn) [Example 140A, (3S)-3-(4,4-diethyl-1-imino-6-oxo-hexahydroyrimidin-1-yl)-N-[(1R,2R)-2-hydroxyindan-1-yl]-2-methoxy-indane-5-carboxamide] | 1.4 nM |
| CC[C@]1(C)CC(=O)N([C@@H]2CCOc3ccc(C(=O)N[C@@H]4c5ccccc5OC[C@H]4OC)cc32)C(=N)N1 [Example 141, (4R)-4-[(4R)-4-ethyl-2-imino-4-methyl-6-oxo-hexahydropyrimidin-1-yl]-N-[(3S,4R)-3-methoxychroman-4-yl]chromane-6-carboxamide] | 8.4 nM |
| COC1COc2ccc(C(=O)N[C@@H]3c4ccccc4C[C@]3(C)O)cc2C1N1C(=N)NC(C)(C)CC1=O (stereo partly drawn) [Example 142, N-[(1R,2S)-2-hydroxy-2-methyl-indan-1-yl]-4-(2-imino-4,4-dimethyl-6-oxo-hexahydropyrimidin-1-yl)-3-methoxy-chromane-6-carboxamide] | 98.5 nM |
| COC1COc2ccc(C(=O)N[C@@H]3c4ccccc4C[C@@]3(C)O)cc2C1N1C(=N)NC(C)(C)CC1=O (stereo partly drawn) [Example 143, N-[(1R,2R)-2-hydroxy-2-methyl-indan-1-yl]-4-(1-imino-4,4-dimethyl-6-oxo-hexahydropyrimidin-1-yl)-3-methoxy-chromane-6-carboxamide] | 178 nM |
| CC1(C)CC(=O)N(C2c3cc(C(=O)N[C@H]4CC(C)(C)Oc5ccccc54)ccc3OCC2O)C(=N)N1 (stereo partly drawn) [Example 144, N-[(4S)-2,2-dimethylchroman-4-yl]-3-hydroxy-4-(2-imino-4,4-dimethyl-6-oxo-hexahydropyrimidin-1-yl)chromane-6-carboxamide] | 194 nM |
| CC[C@]1(C)CC(=O)N(C2c3cc(C(=O)N[C@@H]4c5ccccc5C[C@H]4O)ccc3OCC2OC)C(=N)N1 (stereo partly drawn) [Example 145, 4-[(4R)-4-ethyl-2-imino-4-methyl-6-oxo-hexahydropyrimidin-1-yl]-N-[(1R,2R)-2-hydroxyindan-1-yl]-3-methoxy-chromane-6-carboxamide] | 40.8 nM |
| COCC1(C)Oc2ccc(C(=O)N[C@@H]3c4ccccc4C[C@H]3O)cc2C1N1C(=N)NC(C)(C)CC1=O (stereo partly drawn) [Example 146, N-[(1R,2R)-2-hydroxyindan-1-yl]-3-(2-imino-4,4-dimethyl-6-oxo-hexahydropyrimidin-1-yl)-2-(methoxymethyl)-2-methyl-3H-benzofuran-5-carboxamide] | 35.5 nM |
| CCC1(CC)CC(=O)N([C@@H]2CCOc3ccc(C(=O)N[C@H]4c5cc(F)ccc5C[C@@H]4O)cc32)C(=N)N1 [Example 147, (4R)-4-(4,4-diethyl-2-imino-6-oxo-hexahydropyrimidin-1-yl)-N-[(1S,2S)-6-fluoro-2-hydroxy-indan-1-yl]chromane-6-carboxamide] | 160 nM |
| CCC1(CC)CC(=O)N([C@@H]2CCOc3ccc(C(=O)N[C@@H]4c5cc(F)ccc5C[C@H]4O)cc32)C(=N)N1 [Example 148, (4R)-4-(4,4-diethyl-2-imino-6-oxo-hexahydropyrimidin-1-yl)-N-[(1R,2R)-6-fluoro-2-hydroxy-indan-1-yl]chromane-6-carboxamide] | 2.7 nM |
| CC1(C)CC(=O)N([C@@H]2CCc3ccc(C(=O)N[C@@H]4c5cc(F)ccc5OC(C)(C)[C@H]4O)cc32)C(=N)N1 [Example 149, (3R)-N-[(3S,4R)-6-fluoro-3-hydroxy-2,2-dimethyl-chroman-4-yl]-3-(2-imino-4,4-dimethyl-6-oxo-hexahydropyrimidin-1-yl)indane-5-carboxamide] | 1.1 nM |
| CCC1(CC)CC(=O)N([C@@H]2CCOc3ccc(C(=O)NC(CO)c4ccccc4OC)cc32)C(=N)N1 (stereo partly drawn) [Example 150, (4R)-4-(4,4-diethyl-2-imino-6-oxo-hexahydropyrimidin-1-yl)-N-[2-hydroxy-1-(2-methoxyphenyl)ethyl]chromane-6-carboxamide] | 49 nM |
| CC[C@]1(C)CC(=O)N([C@@H]2CCOc3ccc(C(=O)NC4c5cc(F)ccc5OCC4O)cc32)C(=N)N1 (stereo partly drawn) [Example 151, (4R)-4-[(4R)-4-ethyl-2-imino-4-methyl-6-oxo-hexahydropyrimidin-1-yl]-N-(6-fluoro-3-hydroxy-chroman-4-yl)chromane-6-carboxamide] | 5.4 nM |
| CCC1(CC)CC(=O)N([C@@H]2CCOc3ccc(C(=O)NC4c5ccccc5CC4(F)F)cc32)C(=N)N1 (stereo partly drawn) [Example 152, (4R)-4-(4,4-diethyl-2-imino-6-oxo-hexahydropyrimidin-1-yl)-N-(2,2-difluoroindan-1-yl)chromane-6-carboxamide] | 7.7 nM |
| CC1(C)CC(=O)N([C@@H]2CCOc3ccc(C(=O)N[C@@H]4c5cc(Cl)ccc5OC[C@H]4O)cc32)C(=N)N1 [Example 153, (4R)-N-[(3S,4R)-6-chloro-3-hydroxy-chroman-4-yl]-4-(2-imino-4,4-dimethyl-6-oxo-hexahydropyrimidin-1-yl)chromane-6-carboxamide] | 11.5 nM |
| CCC1(CC)CC(=O)N([C@@H]2CCOc3ccc(C(=O)N[C@@H]4c5ccccc5C5(CC5)[C@H]4O)cc32)C(=N)N1 [Example 154, (4R)-4-(4,4-diethyl-2-imino-6-oxo-hexahydropyrimidin-1-yl)-N-[(1′R,2′R)-2′-hydroxyspiro[cyclopropane-1,3′-indane]-1′-yl]chromane-6-carboxamide] | 0.7 nM |
| CCC1(CC)CC(=O)N([C@@H]2CCOc3ccc(C(=O)N[C@H]4c5ccccc5C5(CC5)[C@@H]4O)cc32)C(=N)N1 [Example 155, (4R)-4-(4,4-diethyl-2-imino-6-oxo-hexahydropyrimidin-1-yl)-N-[(1′S,2′S)-2′-hydroxyspiro[cyclopropane-1,3′-indane]-1′-yl]chromane-6-carboxamide] | 82.5 nM |
| CCC1(CC)CC(=O)N([C@@H]2CCCc3ccc(C(=O)N[C@H]4CC(C)(C)Oc5ccccc54)cc32)C(=N)N1 [Example 156, (4R)-4-(4,4-diethyl-2-imino-6-oxo-hexahydropyrimidin-1-yl)-N-[(4S)-2,2-dimethylchroman-4-yl]tetralin-6-carboxamide] | 1.1 nM |
| CCC1(CC)CC(=O)N([C@@H]2C[C@@H](OC)c3ccc(C(=O)N[C@@H]4c5ccccc5C[C@@]4(C)O)cc32)C(=N)N1 [Example 157, (1R,3R)-3-(4,4-diethyl-2-imino-6-oxo-hexahydropyrimidin-1-yl)-N-[(1R,2R)-2-hydroxy-2-methyl-indan-1-yl]-1-methoxy-indane-5-carboxamide] | 19.9 nM |
| CCC1(CC)CC(=O)N([C@@H]2C[C@H](OC)c3ccc(C(=O)N[C@@H]4c5ccccc5C[C@@]4(C)O)cc32)C(=N)N1 [Example 158, (1S,3R)-3-(4,4-diethyl-2-imino-6-oxo-hexahydropyrimidin-1-yl)-N-[(1R,2R)-2-hydroxy-2-methyl-indan-1-yl]-1-methoxy-indane-5-carboxamide] | 0.9 nM |
| CCC1(CC)CC(=O)N([C@@H]2CCc3ccc(C(=O)N[C@@H]4c5ccccc5OC(C)(C)[C@H]4O)cc32)C(=N)N1 [Example 159, (3R)-3-(4,4-diethyl-2-imino-6-oxo-hexahydropyrimidin-1-yl)-N-[(3S,4R)-3-hydroxy-2,2-dimethyl-chroman-4-yl]indane-5-carboxamide] | 0.5 nM |
| CC1(C)CC(=O)N([C@@H]2CC(C)(C)c3ccc(C(=O)N[C@@H]4c5ccccc5OC(C)(C)[C@H]4O)cc32)C(=N)N1 [Example 160, (3R)-N-[(3S,4R)-3-hydroxy-2,2-dimethyl-chroman-4-yl]-3-(2-imino-4,4-dimethyl-6-oxo-hexahydropyrimidin-1-yl)-1,1-dimethyl-indane-5-carboxamide] | 8.3 nM |
